Like-named read-outs stand apart in the source and are kept apart here.
Legend:
[1] = tested on: cancer cell lines C8161, MUM2C, SKOV3, OVACA3, ScNAP, DU145, H1299, A549, MDA231, SNU499; conditions: MTT, 24 hours
Protocol: The cancer cell lines were cultured in DMEM supplemented with 10% fetal bovine serum (FBS) and 100 U/mL penicillin-streptomycin in a humidified 37° C. incubator supplemented with 5% CO2. Cell proliferation was analyzed using MTT proliferation kit (Sigma). In brief, the cells were plated (5.0×10^3 cells per well) in 96-well plates and allowed to adhere overnight. The cells were then treated with methylenediamine dihydrochloride at various concentrations (0, 1 μM, 50 μM; 100 μM. 250 μM, 500 μM and 1 mM for 24 hours before the assay. After the incubation period, 10 μL of the MTT labeling reagent (final concentration 0.5 mg/mL) was added to each well. The microplate was incubated for 4 hours in a humidified atmosphere (37° C., 5% CO2). 100 μL of the Solubilization solution was added into each well. The plate was allowed to stand overnight in the incubator in a humidified atmosphere (37° C., 5% CO2). Complete solubilization of the purple formazan crystals was checked and the absorbance of the samples was measured using a microplate reader with wavelength of 570 nm.

[2] = tested on: HL-60 (acute leukemia cell); conditions: 50 μM, 100 μM and 500 μM, 24 hours
Protocol: (§1) 50000 cells of each cell line were plated per well in a 24 well plate, treated with methylenediamine hydrochloride at different concentrations (0 as control, 50 μM, 100 μM and 500 μM) for 24 hours, then the living cells were counted. Jurkat: T cell leukemia, HL-60: acute leukemia cell; MV-411: B-myelomonocytic leukemia.

[3] = tested on: Jurkat (T cell leukemia); conditions: 50 μM, 100 μM and 500 μM, 24 hours
Protocol: as §1

[4] = tested on: MV-411 (B-myelomonocytic leukemia); conditions: 50 μM, 100 μM and 500 μM, 24 hours
Protocol: as §1

[5] = tested on: H22, a mouse liver cancer cell line; conditions: for Tumor suppression rate at day 9: versus normal saline group; for Tumor suppression rate at day 9 / suppression of tumor growth in the mouse liver cancer model (in words): dihydrochloride; for suppression of tumor growth in the mouse liver cancer model (in words): 120 and 240 mg/Kg daily through mouth, dose dependent
Protocol: H22, a mouse liver cancer cell line from ATCC, was cultured in 1640 medium with 10% […] at 37° C., 5% CO2. The cells were harvest 48 hours later and diluted to 1×10^6 cells/mL with the medium. Kunming mice, male, and body weight of 20 to 23 grams were used for the in vivo study. The animals were allowed free access to food and water throughout the study. All experimental protocols described here were approved by the Ethics Review Committee for Animal Experimentation. 0.2 mL of 1×10^6/ml cell suspension was inoculated into the abdominal cavity of the Kunming mice. The H22 ascites was transplanted 5 days later. The H22 cells in the ascites were harvested, diluted to a concentration of 1×10^7/mL with sterilized NS, then 0.2 mL was injected subcutaneously into the right armpit region of the mice. […] The animals were randomly divided into 3 groups with 7 mice in each and received the drug through mouth daily. Group 1: normal saline; Group 2: Methylenediamine Dihydrochloride low dose of 120 mg/Kg; Group 3: methylenediamine dihydrochloride high dose of 240 mg/Kg. Two perpendicular dimensions (length and width) of the subcutaneous transplantation tumors were measured in every mouse at day 3, day 6 and day 9 to calculate the tumor volume which was compared among groups (volume=½×length×width^2). […] The tumor suppression rate was calculated as: tumor volume in normal saline group minus tumor volume in methylenediamine dihydrochloride treated group, then divided by tumor volume of normal saline group.

methylenediamine dihydrochloride
suppression of cell proliferation (in words) ([1]; 0 μM to 1 mM): suppressed with a dose dependent pattern | concentration at which suppression of most cancer cells' growth started [1]: 50 µM | concentration above which proliferation was significantly suppressed ([1]; dose dependent pattern): above 100 μM | suppression of living cells [2]: significant suppression | suppression of living cells [3]: significant suppression | suppression of living cells [4]: significant suppression | Average tumor volume, Day 3 ([5]; 120 mg/Kg daily through mouth): 0.43 cm^3 | Average tumor volume, Day 6 ([5]; 120 mg/Kg daily through mouth): 0.85 cm^3 | Average tumor volume, Day 9 ([5]; 120 mg/Kg daily through mouth): 1.21 cm^3 | Tumor suppression rate at day 9 ([5]; 120 mg/Kg daily through mouth): 30.5% | Tumor suppression rate at day 9 ([5]; 120 mg/Kg daily through mouth, listed as Methylenediamine dihydrochloride): 30.5% | Average tumor volume, Day 3 ([5]; 240 mg/Kg daily through mouth): 0.41 cm^3 | Average tumor volume, Day 6 ([5]; 240 mg/Kg daily through mouth): 0.78 cm^3 | Average tumor volume, Day 9 ([5]; 240 mg/Kg daily through mouth): 1.10 cm^3 | Tumor suppression rate at day 9 ([5]; 240 mg/Kg daily through mouth): 36.8% | Tumor suppression rate at day 9 ([5]; 240 mg/Kg daily through mouth, listed as Methylenediamine dihydrochloride): 36.8% | suppression of tumor growth in the mouse liver cancer model (in words) ([5]; listed as ethylenediamine dihydrochloride): effective in treating cancers | suppression of tumor growth in the mouse liver cancer model (in words) ([5]; listed as methylenediamine dihydrochloride): successfully suppressed tumor growth

Reference: patent publication US20240099992A1, “COMPOSITIONS AND METHODS FOR TREATING CANCER” (priority 2021, published 2024)
